Tests used:
Type in all cases: cell-based
P2X7 [1] = molecular target: T1, P2X7 (Homo sapiens (Human), UniProt Q99572); assay: P2X7 antagonism in human PBMCs (LPS + Bz-ATP induced IL-1β release, ELISA); settings: LPS 30 ng/ml, Bz-ATP 0.5 mM; for PBMC 10 μM (% control): compound 10 μM;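 on all read-outs here: PBMCs from donor human blood, with a further 1.5 h incubation of the cells in the assay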
Procedure: Human blood was collected using a blood donor program. PBMCs were isolated from blood using a Ficoll density gradient technique. Briefly, blood was laid on Ficoll solution and centrifuged at RT for 20 minutes at 2000 rpm. The buffy layer (between red blood cells and plasma) was carefully collected by aspiration, washed with PBS and centrifuged again at 1500 rpm for 15 minutes. The resulting cell pellet was washed and plated on 96 well-plates for experiments. For the Mouse/Human Whole Blood experiments, 150 μl of either mouse or human blood was platted on 96 well-plates. Lipopolysaccharide (LPS) (30 ng/ml) was added to each well and incubated for 1 hour. Test compounds were then added and incubated for 30 minutes. The P2X7 agonist, 2′(3′)-O-(4-benzoylbenzoyl) adenosine 5′ triphosphate (Bz-ATP) was then added at a final concentration of 0.5 mM (PBMC) or 1 mM (blood). Cells were incubated for an additional 1.5 hours. At that point, supernatant was collected and stored for IL-1β assay using manufacturer's protocol for enzyme-linked immunosorbent assay (ELISA). Data was expressed as percent control, where control is defined as the difference in IL-1β release in LPS+Bz-ATP samples and LPS only samples. Data was plotted as response (% control) versus concentration to generate IC50 values.

P2X7 [2] = molecular target: T1, P2X7; assay: Ca2+ flux (FLIPR) in 1321N1 cells expressing recombinant human P2X7 channel; settings: 250 μM BzATP;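 further: Calcium-4 dye-loaded cells exposed to compound for 30 min before agonist addition, fluorescence change read 180 s after agonist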
Procedure: Cells were seeded at a density of 25000 cells/well (96-well clear bottom black walled plates) in 100 μl volume/well. On the day of the experiment, cell plates were washed with assay buffer, containing (in mM): 130 NaCl, 2 KCl, 1 CaCl2, 1 MgCl2, 10 HEPES, 5 glucose; pH 7.40 and 300 mOs. After the wash, cells were loaded with the Calcium-4 dye (Molecular Device) and incubated in the dark for 60 minutes. Test compounds were prepared at 250× the test concentration in neat DMSO. Intermediate 96-well compound plates were prepared by transferring 1.2 μL of the compound into 300 μL of assay buffer. A further 3× dilution occurred when transferring 50 μL/well of the compound plate to 100 μL/well in the cell plate. Cells were incubated with test compounds and dye for 30 minutes. […] The fluorescence change was measured 180 seconds after adding the agonist.

rat P2X7 = rat P2X7 (Rattus norvegicus (Rat), UniProt Q64663); assay: Ca2+ flux (FLIPR) in 1321N1 cells expressing recombinant rat P2X7 channel; settings: 250 μM BzATP;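 further: Calcium-4 dye fluorescence change read 180 s after agonist addition, following 30 min cell preincubation with test compound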
Sequence of rat P2X7 (Q64663 whole entry): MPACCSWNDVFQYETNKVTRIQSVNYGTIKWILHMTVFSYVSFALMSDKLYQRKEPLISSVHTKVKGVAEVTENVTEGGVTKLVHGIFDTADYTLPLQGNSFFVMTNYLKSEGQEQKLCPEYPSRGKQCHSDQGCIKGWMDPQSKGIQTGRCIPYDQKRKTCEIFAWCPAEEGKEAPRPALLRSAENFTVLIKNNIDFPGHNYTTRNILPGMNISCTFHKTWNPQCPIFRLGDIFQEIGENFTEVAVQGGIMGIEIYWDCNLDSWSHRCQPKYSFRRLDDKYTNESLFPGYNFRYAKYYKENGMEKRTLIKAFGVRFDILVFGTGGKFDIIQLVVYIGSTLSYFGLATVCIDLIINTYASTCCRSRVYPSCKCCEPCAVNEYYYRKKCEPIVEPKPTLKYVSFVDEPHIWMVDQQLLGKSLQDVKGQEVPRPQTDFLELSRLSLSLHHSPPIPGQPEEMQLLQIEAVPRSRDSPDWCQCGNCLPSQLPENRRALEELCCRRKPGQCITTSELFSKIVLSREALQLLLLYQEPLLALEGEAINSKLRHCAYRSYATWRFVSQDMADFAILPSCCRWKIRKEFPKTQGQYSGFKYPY

T1 sequence (Q99572 whole entry): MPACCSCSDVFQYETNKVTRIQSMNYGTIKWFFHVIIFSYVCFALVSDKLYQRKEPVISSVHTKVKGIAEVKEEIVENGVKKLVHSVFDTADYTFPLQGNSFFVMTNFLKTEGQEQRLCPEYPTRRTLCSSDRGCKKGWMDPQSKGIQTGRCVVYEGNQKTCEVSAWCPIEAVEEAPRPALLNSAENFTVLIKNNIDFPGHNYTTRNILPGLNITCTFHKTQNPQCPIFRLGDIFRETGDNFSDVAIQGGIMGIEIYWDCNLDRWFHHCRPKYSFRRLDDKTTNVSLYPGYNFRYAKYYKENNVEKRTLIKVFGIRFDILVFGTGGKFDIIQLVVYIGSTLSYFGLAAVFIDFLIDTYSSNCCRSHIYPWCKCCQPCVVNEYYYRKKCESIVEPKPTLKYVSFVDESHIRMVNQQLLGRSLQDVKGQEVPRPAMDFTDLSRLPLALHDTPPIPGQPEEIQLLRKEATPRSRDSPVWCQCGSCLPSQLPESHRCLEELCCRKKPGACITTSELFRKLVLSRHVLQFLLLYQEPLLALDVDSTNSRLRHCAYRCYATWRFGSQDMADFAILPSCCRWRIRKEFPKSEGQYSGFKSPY

PBMC 10 μM (% control) (P2X7 [1])	IC50 (P2X7 [2])	IC50 (rat P2X7)	PBMC 1 μM (% control) (P2X7 [1]; compound 1 μM)	SMILES
–	158 nM	1260 nM	83.4 % control	COc1ccccc1-n1nnc2c1CCN(C(=O)c1cccc(C(F)(F)F)c1Cl)C2 [Example 125, (2-Chloro-3-(trifluoromethyl)phenyl)(1-(2-methoxyphenyl)-6,7-dihydro-1H-[1,2,3]triazolo[4,5-c]pyridin-5(4H)-yl)methanone]
23.1 % control	2110 nM	> 10000 nM	–	Cn1nccc1-n1nnc2c1CCN(C(=O)c1cccc(C(F)(F)F)c1Cl)C2 [Example 128, (2-Chloro-3-(trifluoromethyl)phenyl)(1-(1-methyl-1H-pyrazol-5-yl)-6,7-dihydro-1H-[1,2,3]triazolo[4,5-c]pyridin-5(4H)-yl)methanone]
−0.6 % control	16.5 nM	10.2 nM	–	Cc1c(C(=O)N2Cc3nnn(-c4cc[nH]n4)c3CC2C)cccc1C(F)(F)F (stereo not drawn) [Example 154, (6-methyl-1-(1H-pyrazol-3-yl)-6,7-dihydro-1H-[1,2,3]triazolo[4,5-c]pyridin-5(4H)-yl)(2-methyl-3-(trifluoromethyl)phenyl)methanone]
54.1 % control	> 10000 nM	> 10000 nM	–	Cc1cnc(-n2nnc3c2CCN(C(=O)c2cccc(C(F)(F)F)c2Cl)C3C)c(C)c1 (stereo not drawn) [Example 159, (2-chloro-3-(trifluoromethyl)phenyl)(1-(3,5-dimethylpyridin-2-yl)-4-methyl-6,7-dihydro-1H-[1,2,3]triazolo[4,5-c]pyridin-5(4H)-yl)methanone]
9.3 % control	1190 nM	> 10000 nM	–	CC1c2nnn(-c3cncnc3)c2C=CN1C(=O)c1cccc(C(F)(F)F)c1Cl (stereo not drawn) [Example 236, (2-Chloro-3-(trifluoromethyl)phenyl)(4-methyl-1-(pyrimidin-5-yl)-1H-[1,2,3]triazolo[4,5-c]pyridin-5(4H)-yl)methanone]
−4.1 % control	27.1 nM	724 nM	–	CC1CN(C(=O)c2cccc(C(F)(F)F)c2Cl)C(C)c2nnn(-c3ccc(F)cc3)c21 (stereo not drawn) [Example 238, (2-Chloro-3-(trifluoromethyl)phenyl)(1-(4-fluorophenyl)-4,7-dimethyl-6,7-dihydro-1H-[1,2,3]triazolo[4,5-c]pyridin-5(4H)-yl)methanone]
−27.6 % control	1190 nM	2410 nM	–	CC1c2c(nnn2-c2ccccc2)CCN1C(=O)c1cccc(C(F)(F)F)c1Cl (stereo not drawn) [Example 289, (2-chloro-3-(trifluoromethyl)phenyl)(4-methyl-3-phenyl-6,7-dihydro-3H-[1,2,3]triazolo[4,5-c]pyridin-5(4H)-yl)methanone]
10.1 % control	> 10000 nM	> 10000 nM	–	CCc1cccnc1-n1nnc2c1CCN(C(=O)c1cccc(C(F)(F)F)c1)C2C (stereo not drawn) [Example 295, (1-(3-ethylpyridin-2-yl)-4-methyl-6,7-dihydro-1H-[1,2,3]triazolo[4,5-c]pyridin-5(4H)-yl)(3-(trifluoromethyl)phenyl)methanone]

The next lines start with the molecule.

SMILES	PBMC 10 μM (% control) (P2X7 [1])	IC50 (P2X7 [2])	IC50 (rat P2X7)	PBMC 1 μM (% control) (P2X7 [1]; compound 1 μM)
O=C(c1ccc(F)cc1Cl)N1CCc2c(nnn2-c2ccccn2)C1 [Example 117, (2-Chloro-4-fluorophenyl)(1-(pyridin-2-yl)-6,7-dihydro-1H-[1,2,3]triazolo[4,5-c]pyridin-5(4H)-yl)methanone]	4.3 % control	2220 nM	> 10000 nM	–
O=C(c1ccc(Cl)cc1F)N1CCc2c(nnn2-c2ccccn2)C1 [Example 129, (4-Chloro-2-fluorophenyl)(1-(pyridin-2-yl)-6,7-dihydro-1H-[1,2,3]triazolo[4,5-c]pyridin-5(4H)-yl)methanone]	8.4 % control	366 nM	3350 nM	–
C[C@H]1Cc2c(nnn2-c2ncc(F)cn2)CN1C(=O)c1ccc(Cl)cc1F [Example 156, (S)-(4-chloro-2-fluorophenyl)(1-(5-fluoropyrimidin-2-yl)-6-methyl-6,7-dihydro-1H-[1,2,3]triazolo[4,5-c]pyridin-5(4H)-yl)methanone]	1.8 % control	14.4 nM	604 nM	–
Cc1cnc(-n2nnc3c2CCN(C(=O)c2cccc(Cl)c2Cl)C3C)c(C)c1 (stereo not drawn) [Example 160, (2,3-dichlorophenyl)(1-(3,5-dimethylpyridin-2-yl)-4-methyl-6,7-dihydro-1H-[1,2,3]triazolo[4,5-c]pyridin-5(4H)-yl)methanone]	101.5 % control	> 10000 nM	> 10000 nM	–
CC1c2nnn(-c3cncnc3)c2CCN1C(=O)c1cccc(C(F)(F)F)c1Cl (stereo not drawn) [Example 177, (2-Chloro-3-(trifluoromethyl)phenyl)(4-methyl-1-(pyrimidin-5-yl)-6,7-dihydro-1H-[1,2,3]triazolo[4,5-c]pyridin-5(4H)-yl)methanone]	8.6 % control	227 nM	> 10000 nM	–
Cc1cncc(-n2nnc3c2CCN(C(=O)c2cccc(Cl)c2Cl)C3C)n1 (stereo not drawn) [Example 180, (2,3-dichlorophenyl)(4-methyl-1-(6-methylpyrazin-2-yl)-6,7-dihydro-1H-[1,2,3]triazolo[4,5-c]pyridin-5(4H)-yl)methanone]	−3.7 % control	592 nM	> 10000 nM	–
Cc1cc(C)nc(-n2nnc3c2CCN(C(=O)c2cccc(Cl)c2Cl)C3C)c1 (stereo not drawn) [Example 231, (2,3-dichlorophenyl)(1-(4,6-dimethylpyridin-2-yl)-4-methyl-6,7-dihydro-1H-[1,2,3]triazolo[4,5-c]pyridin-5(4H)-yl)methanone]	−4.8 % control	499 nM	38200 nM	–
CC1c2ncn(-c3ccc(F)cn3)c2CCN1C(=O)c1ccc(F)cc1Cl (stereo not drawn) [Example 256, (2-chloro-4-fluorophenyl)(1-(5-fluoropyridin-2-yl)-4-methyl-6,7-dihydro-1H-imidazo[4,5-c]pyridin-5(4H)-yl)methanone]	7.1 % control	2390 nM	> 10000 nM	–
CC1c2ncn(-c3ccc(F)cn3)c2CCN1C(=O)c1ccccc1F (stereo not drawn) [Example 264, (2-fluorophenyl)(1-(5-fluoropyridin-2-yl)-4-methyl-6,7-dihydro-1H-imidazo[4,5-c]pyridin-5(4H)-yl)methanone]	89.5 % control	> 10000 nM	> 10000 nM	–
CC1Cc2c(-c3ccn[nH]3)n[nH]c2CN1C(=O)c1ccc(Cl)cc1Cl (stereo not drawn) [Example 268, (2,4-dichlorophenyl)(5-methyl-3-(1H-pyrazol-5-yl)-4,5-dihydro-1H-pyrazolo[3,4-c]pyridin-6(7H)-yl)methanone]	−59.9 % control	600 nM	1220 nM	–
CC1c2nn(COCC[Si](C)(C)C)c(-c3ncc(F)cn3)c2CCN1C(=O)c1cccc(C(F)(F)F)c1Cl (stereo not drawn) [Example 303, (2-chloro-3-(trifluoromethyl)phenyl)(3-(5-fluoropyrimidin-2-yl)-7-methyl-2-((2-(trimethylsilyl)ethoxy)methyl)-4,5-dihydro-2H-pyrazolo[3,4-c]pyridin-6(7H)-yl)methanone]	−1.6 % control	6920 nM	5190 nM	–
